Assay results from paper PMC11284788, “NN1213 – A Potent, Long-Acting, and Selective Analog of Human Amylin” (Journal of Medicinal Chemistry, 2024).
In brackets after ≈: the same amount, converted by molar mass.

Tests used:
[1] = HMWP content by size-exclusion chromatography; assay type: physicochemical; settings: analogs 10–21 (pH 4.0 series); covalent dimers and polymers prior to fibril formation testing, SEC, % of total absorbance area at 215 nm
How it was run: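 HMWP percentage is the covalent dimer/polymer peak area relative to total absorbance area, with extinction coefficients taken as equal to the main peak. Isocratic size-exclusion elution used 50% (v/v) 2-propanol containing 0.5 M NaCl and phosphate buffer; measured on analogs prior to fibril assays.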

rats = experiment: Acute food intake in rats; assay type: in vivo, rat
rat AMY3R = target: T1, rat AMY3R (Rattus norvegicus, UniProt P32214+Q9JJ73); experiment: cAMP FlashPlate assay, rat AMY3R; assay type: cell-based; settings: ratio of cAMP EC50 values
T1 construct: expressed in transfected cells; host or cells: BHK tk-ts 13, transient co-transfection (FuGENE 6)
T1 sequence (P32214 25-479 isoform P32214-2 limits assumed): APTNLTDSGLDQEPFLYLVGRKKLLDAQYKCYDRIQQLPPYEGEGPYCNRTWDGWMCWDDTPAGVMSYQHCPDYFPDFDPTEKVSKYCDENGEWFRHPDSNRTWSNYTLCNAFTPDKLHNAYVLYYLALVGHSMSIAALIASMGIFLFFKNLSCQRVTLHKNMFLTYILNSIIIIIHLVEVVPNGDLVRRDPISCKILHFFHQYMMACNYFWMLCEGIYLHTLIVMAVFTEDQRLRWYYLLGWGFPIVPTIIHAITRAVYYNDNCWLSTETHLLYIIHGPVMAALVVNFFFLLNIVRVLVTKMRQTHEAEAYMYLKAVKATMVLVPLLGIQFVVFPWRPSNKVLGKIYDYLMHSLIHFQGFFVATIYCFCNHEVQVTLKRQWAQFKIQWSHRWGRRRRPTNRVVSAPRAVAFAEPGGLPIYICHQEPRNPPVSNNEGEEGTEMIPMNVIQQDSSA
T1 sequence (Q9JJ73 23-147 partner): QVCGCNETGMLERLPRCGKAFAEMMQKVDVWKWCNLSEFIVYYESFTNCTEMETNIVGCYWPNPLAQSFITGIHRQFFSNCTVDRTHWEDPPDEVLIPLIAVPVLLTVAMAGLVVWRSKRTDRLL

[2] = Solubility versus pH profile

Compound: CC[C@H](C)[C@H](NC(=O)[C@H](C)NC(=O)CNC(=O)[C@H](Cc1ccccc1)NC(=O)[C@H](CC(N)=O)NC(=O)[C@@H]1CCCN1C(=O)[C@H](CO)NC(=O)[C@H](CO)NC(=O)[C@H](Cc1c[nH]cn1)NC(=O)[C@H](CCCNC(=N)N)NC(=O)[C@H](CC(C)C)NC(=O)[C@H](Cc1ccccc1)NC(=O)[C@H](CC(=O)O)NC(=O)[C@H](C)NC(=O)[C@H](CC(C)C)NC(=O)[C@H](CCCNC(=N)N)NC(=O)[C@H](CCC(N)=O)NC(=O)[C@@H](NC(=O)[C@H](C)NC(=O)[C@@H]1CSSC[C@H](NC(=O)[C@@H](N)CCCCNC(=O)CC[C@H](NC(=O)CC[C@H](NC(=O)CCCCCCCCCCCCCCCCCCC(=O)O)C(=O)O)C(=O)O)C(=O)N[C@@H](CC(N)=O)C(=O)N[C@@H]([C@@H](C)O)C(=O)N[C@@H](C)C(=O)N[C@@H]([C@@H](C)O)C(=O)N1)[C@@H](C)O)C(=O)N1CCC[C@H]1C(=O)N[C@@H](CO)C(=O)N[C@@H](CO)C(=O)N[C@H](C(=O)N[C@@H](CC(N)=O)C(=O)N[C@H](C(=O)NCC(=O)N[C@@H](CO)C(=O)N[C@@H](CCCNC(=N)N)C(=O)N[C@H](C(=O)N[C@@H](Cc1ccc(O)cc1)C(N)=O)[C@@H](C)O)C(C)C)[C@@H](C)O [NN1213]
- HMWP [1]: 0.9%
- food intake reduction, following 24 h (rats; single sc dose 3 nmol/kg, 24–48 h, compared to controls): 15%
- food intake reduction, first 24 h (rats; single sc dose 3 nmol/kg, compared to controls): 25%
- food intake reduction, first 24 h (rats; single sc dose 100 nmol/kg): 70%
- ratio rCTR/rAMY3R (rat AMY3R): 391
- solubility kinetic ([2]; bis-tris-propane buffer, pH 6, aqueous buffer): ≥ 200 µM
- solubility kinetic ([2]; bis-tris-propane buffer, pH 6.5, aqueous buffer): ≥ 200 µM
- solubility kinetic ([2]; bis-tris-propane buffer, pH 7, aqueous buffer): 155 µM (≈ 706 µg/mL)
- solubility kinetic ([2]; bis-tris-propane buffer, pH 7.5, aqueous buffer): 106 µM (≈ 483 µg/mL)
- solubility kinetic ([2]; bis-tris-propane buffer, pH 8, aqueous buffer): 110 µM (≈ 501 µg/mL)
- solubility kinetic ([2]; lactate buffer, pH 4, aqueous buffer): ≥ 200 µM
- solubility kinetic ([2]; lactate buffer, pH 5, aqueous buffer): ≥ 200 µM
